The source of these data is patent US11299473B2, “Benzimidazole and indole compounds and uses thereof” (Incyte Corporation, priority 2018, dated 2022).

Structures are written as SMILES.

The target in the test is active HPK1 (SignalChem M23-11G) (Homo sapiens (Human), UniProt Q92918). The experiment in a line: HPK1 Kinase Binding Assay. Conditions: LanthaScreen tracer 222 / Eu-Anti GST antibody, one hour incubation at 25° C. Here is the method: A stock solution of 1 mM test compound was prepared in DMSO. The compound plate was prepared by 3-fold and 11-point serial dilutions. 0.1 μL of the compound in DMSO was transferred from the compound plate to the white 384 well polystyrene plates. The assay buffer contained 50 mM HEPES, pH 7.5, 0.01% Tween-20, 5 mM MgCl2, 0.01% BSA, and 5 mM DTT. 5 μL of 4 nM active HPK1 (SignalChem M23-11G) prepared in the buffer was added to the plate. The enzyme concentration given was based on the given stock concentration reported by the vender. 5 μl of 18 nM tracer 222 (ThermoFisher PV6121) and 4 nM LanthaScreen Eu-Anti GST antibody (ThermoFisher PV5595) were added. After one hour incubation at 25° C., the plates were read on a PHERAstar FS plate reader (BMG Labtech). Ki values were determined.
active HPK1 (SignalChem M23-11G), sequence (Q92918 1-346 limits assumed): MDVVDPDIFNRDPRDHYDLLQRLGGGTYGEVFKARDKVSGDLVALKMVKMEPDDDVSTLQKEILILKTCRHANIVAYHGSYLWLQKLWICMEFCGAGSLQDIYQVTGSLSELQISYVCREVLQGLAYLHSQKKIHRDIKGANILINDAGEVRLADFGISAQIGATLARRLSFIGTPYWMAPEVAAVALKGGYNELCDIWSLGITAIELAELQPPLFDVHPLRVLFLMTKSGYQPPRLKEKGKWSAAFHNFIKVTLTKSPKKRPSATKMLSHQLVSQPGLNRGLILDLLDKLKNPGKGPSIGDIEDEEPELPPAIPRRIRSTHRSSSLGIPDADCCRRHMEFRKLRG
For the compound `COc1cccc(F)c1-c1nccc(C(=O)Nc2ccc3c(nc(-c4ncccc4F)n3C)c2N2C[C@H](N)C[C@H]2CO)n1` [Example 1, N-(4-((2S,4R)-4-Amino-2-(hydroxymethyl)pyrrolidin-1-yl)-2-(3-fluoropyridin-2-yl)-1-methyl-1H-benzo[d]imidazol-5-yl)-2-(2-fluoro-6-methoxyphenyl)pyrimidine-4-carboxamide], the Ki (as a rule, a dissociation constant, usually derived from enzyme kinetics or from competition with a known ligand) is no more than 100 nM. `COc1cccc(F)c1-c1nccc(C(=O)Nc2ccc3c(nc(-c4ccncc4F)n3C)c2N2CCOC[C@@H]2CN)n1` [Example 8, (S)—N-(4-(3-(Aminomethyl)morpholino)-2-(3-fluoropyridin-4-yl)-1-methyl-1H-benzo[d]imidazol-5-yl)-2-(2-fluoro-6-methoxyphenyl)pyrimidine-4-carboxamide] had a Ki of no more than 100 nM.

For `COc1cccc(F)c1-c1nccc(C(=O)Nc2ccc3c(nc(-c4ccnn4C)n3C)c2N2CCC[C@H]2CN)n1` [Example 19, (S)—N-(4-(2-(Aminomethyl)pyrrolidin-1-yl)-1-methyl-2-(1-methyl-1H-pyrazol-5-yl)-1H-benzo[d]imidazol-5-yl)-2-(2-fluoro-6-methoxyphenyl)pyrimidine-4-carboxamide], the Ki was no more than 100 nM. `COc1cccc(F)c1-c1nccc(C(=O)Nc2ccc3c(nc(C)n3C)c2N2CCC[C@H]2CN)n1` [Example 12, (S)—N-(4-(2-(Aminomethyl)pyrrolidin-1-yl)-1,2-dimethyl-1H-benzo[d]imidazol-5-yl)-2-(2-fluoro-6-methoxyphenyl)pyrimidine-4-carboxamide] showed a Ki of no more than 100 nM. In turn, `Cc1cccc(F)c1-c1nccc(C(=O)Nc2ccc3c(nc(C)n3C)c2N2CCC[C@H]2CN)n1` [Example 33, (S)—N-(4-(2-(Aminomethyl)pyrrolidin-1-yl)-1,2-dimethyl-1H-benzo[d]imidazol-5-yl)-2-(2-fluoro-6-methylphenyl)pyrimidine-4-carboxamide] displayed a Ki of no more than 100 nM. `CN(c1c(NC(=O)c2ccnc(-c3c(F)cccc3F)n2)ccc2c1nc(-c1c(F)cncc1F)n2C)[C@@H]1CCCNC1` [Example 6, (R)-2-(2,6-Difluorophenyl)-N-(2-(3,5-difluoropyridin-4-yl)-1-methyl-4-(methyl(piperidin-3-yl)amino)-1H-benzo[d]imidazol-5-yl)pyrimidine-4-carboxamide] had a Ki of no more than 100 nM. `COc1cccc(F)c1-c1nccc(C(=O)Nc2ccc3c(nc(C)n3C)c2-c2ccccc2N)n1` [Example 31, N-(4-(2-Aminophenyl)-1,2-dimethyl-1H-benzo[d]imidazol-5-yl)-2-(2-fluoro-6-methoxyphenyl)pyrimidine-4-carboxamide] registered a Ki of no more than 100 nM. In the case of `COc1cccc(F)c1-c1nc(C(=O)Nc2ccc3c(nc(C)n3C)c2N2CCC[C@H]2CN)ccc1F` [Example 34, N-(4-((S)-2-(Aminomethyl)pyrrolidin-1-yl)-1,2-dimethyl-1H-benzo[d]imidazol-5-yl)-5-fluoro-6-(2-fluoro-6-methoxyphenyl)picolinamide], the Ki was no more than 100 nM. `COc1cccc(F)c1-c1nccc(C(=O)Nc2ccc3c(nc(C)n3CC(C)(C)OC)c2N2CCC[C@H]2CN)n1` [Example 23, (S)—N-(4-(2-(Aminomethyl)pyrrolidin-1-yl)-1-(2-methoxy-2-methylpropyl)-2-methyl-1H-benzo[d]imidazol-5-yl)-2-(2-fluoro-6-methoxyphenyl)pyrimidine-4-carboxamide] displayed a Ki of no more than 100 nM.

Take `COc1cccc(F)c1-c1nccc(C(=O)Nc2ccc3c(ccn3-c3cccc(F)c3C#N)c2N2C[C@@H](N)C[C@H]2CO)n1` [Example 47, N-(4-((2S,4S)-4-Amino-2-(hydroxymethyl)pyrrolidin-1-yl)-1-(2-cyano-3-fluorophenyl)-1H-indol-5-yl)-2-(2-fluoro-6-methoxyphenyl)pyrimidine-4-carboxamide]: the Ki is no more than 100 nM. `COc1cccc(F)c1-c1nccc(C(=O)Nc2ccc3c(nc(C)n3C)c2N2CCC[C@@H]2CO)n1` [Example 14, (R)-2-(2-Fluoro-6-methoxyphenyl)-N-(4-(2-(hydroxymethyl)pyrrolidin-1-yl)-1,2-dimethyl-1H-benzo[d]imidazol-5-yl)pyrimidine-4-carboxamide] returned a Ki of no more than 100 nM. `COc1cccc(F)c1-c1nccc(C(=O)Nc2ccc3c(ccn3C)c2N2C[C@@H]3C[C@H]2CN3)n1` [Example 38, N-(4-((1S,4S)-2,5-Diazabicyclo[2.2.1]heptan-2-yl)-1-methyl-1H-indol-5-yl)-2-(2-fluoro-6-methoxyphenyl)pyrimidine-4-carboxamide] had a Ki of no more than 100 nM. `COc1cccc(F)c1-c1nccc(C(=O)Nc2ccc3c(nc(C)n3[C@H]3CCOC3)c2N2CCC[C@H]2CN)n1` [Example 24, N-(4-((S)-2-(Aminomethyl)pyrrolidin-1-yl)-2-methyl-1-((S)-tetrahydrofuran-3-yl)-1H-benzo[d]imidazol-5-yl)-2-(2-fluoro-6-methoxyphenyl)pyrimidine-4-carboxamide]: the Ki was no more than 100 nM. `COC[C@@H](C)n1c(C)nc2c(N3CCC[C@H]3CN)c(NC(=O)c3ccnc(-c4c(F)cccc4OC)n3)ccc21` [Example 22, N-(4-((S)-2-(Aminomethyl)pyrrolidin-1-yl)-1-((R)-1-methoxypropan-2-yl)-2-methyl-1H-benzo[d]imidazol-5-yl)-2-(2-fluoro-6-methoxyphenyl)pyrimidine-4-carboxamide]: the Ki was no more than 100 nM. Take `COc1cccc(F)c1-c1nccc(C(=O)Nc2ccc3c(ccn3-c3ccnn3C)c2N2C[C@@H](N)C[C@H]2CO)n1` [Example 46, N-(4-((2S,4S)-4-Amino-2-(hydroxymethyl)pyrrolidin-1-yl)-1-(1-methyl-1H-pyrazol-5-yl)-1H-indol-5-yl)-2-(2-fluoro-6-methoxyphenyl)pyrimidine-4-carboxamide]: the Ki is no more than 100 nM. Compound `COc1cccc(F)c1-c1nccc(C(=O)Nc2ccc3c(ncn3C)c2N2CCC[C@H]2CN)n1` [Example 28, (S)—N-(4-(2-(Aminomethyl)pyrrolidin-1-yl)-1-methyl-1H-benzo[d]imidazol-5-yl)-2-(2-fluoro-6-methoxyphenyl)pyrimidine-4-carboxamide] gave a Ki of no more than 100 nM. The compound `COc1cccnc1-c1nc2c(N3C[C@H](N)C[C@H]3CO)c(NC(=O)c3ccnc(-c4c(F)cccc4F)n3)ccc2n1C` [Example 3, N-(4-((2S,4R)-4-Amino-2-(hydroxymethyl)pyrrolidin-1-yl)-2-(3-methoxypyridin-2-yl)-1-methyl-1H-benzo[d]imidazol-5-yl)-2-(2,6-difluorophenyl)pyrimidine-4-carboxamide] had a Ki of no more than 100 nM.

On to `COc1cccc(F)c1-c1nccc(C(=O)Nc2ccc3c(ccn3Cc3ccncc3)c2N2C[C@@H]3C[C@H]2CN3)n1` [Example 39, N-(4-((1S,4S)-2,5-Diazabicyclo[2.2.1]heptan-2-yl)-1-(pyridin-4-ylmethyl)-1H-indol-5-yl)-2-(2-fluoro-6-methoxyphenyl)pyrimidine-4-carboxamide], for which the Ki was no more than 100 nM. Then `COc1cccc(F)c1-c1nccc(C(=O)Nc2ccc3c(nc(C)n3C)c2N2CCC[C@@H]2CN)n1` [Example 13, (R)—N-(4-(2-(Aminomethyl)pyrrolidin-1-yl)-1,2-dimethyl-1H-benzo[d]imidazol-5-yl)-2-(2-fluoro-6-methoxyphenyl)pyrimidine-4-carboxamide], with no more than 100 nM; and `Cn1c(-c2ccncc2F)nc2c(N3CCNC[C@@H]3CO)c(NC(=O)c3ccnc(-c4c(F)cccc4F)n3)ccc21` [Example 9, (R)-2-(2,6-Difluorophenyl)-N-(2-(3-fluoropyridin-4-yl)-4-(2-(hydroxymethyl)piperazin-1-yl)-1-methyl-1H-benzo[d]imidazol-5-yl)pyrimidine-4-carboxamide], with no more than 100 nM; and `COc1cccc(F)c1-c1nccc(C(=O)Nc2ccc3c(ccn3CCN3CCOCC3)c2N2C[C@@H]3C[C@H]2CN3)n1` [Example 43, N-(4-((1S,4S)-2,5-Diazabicyclo[2.2.1]heptan-2-yl)-1-(2-morpholinoethyl)-1H-indol-5-yl)-2-(2-fluoro-6-methoxyphenyl)pyrimidine-4-carboxamide], with no more than 100 nM. The result for `COCCn1c(C)nc2c(N3CCC[C@H]3CN)c(NC(=O)c3ccnc(-c4c(F)cccc4OC)n3)ccc21` [Example 21, (S)—N-(4-(2-(Aminomethyl)pyrrolidin-1-yl)-1-(2-methoxyethyl)-2-methyl-1H-benzo[d]imidazol-5-yl)-2-(2-fluoro-6-methoxyphenyl)pyrimidine-4-carboxamide] reads no more than 100 nM; that for `COc1cccc(F)c1-c1nccc(C(=O)Nc2ccc3c(nc(C4CCOCC4)n3C)c2N2CCC[C@H]2CN)n1` [Example 20, (S)—N-(4-(2-(Aminomethyl)pyrrolidin-1-yl)-1-methyl-2-(tetrahydro-2H-pyran-4-yl)-1H-benzo[d]imidazol-5-yl)-2-(2-fluoro-6-methoxyphenyl)pyrimidine-4-carboxamide], no more than 100 nM; that for `Cn1c(-c2ncccc2F)nc2c(N3C[C@H](N)C[C@H]3CO)c(NC(=O)c3ccnc(-c4c(F)cccc4F)n3)ccc21` [Example 2, N-(4-((2S,4R)-4-Amino-2-(hydroxymethyl)pyrrolidin-1-yl)-2-(3-fluoropyridin-2-yl)-1-methyl-1H-benzo[d]imidazol-5-yl)-2-(2,6-difluorophenyl)pyrimidine-4-carboxamide], no more than 100 nM. The result for `COc1cccc(F)c1-c1nccc(C(=O)Nc2ccc3c(nc(C)n3Cc3ccncc3)c2N2CC[C@H](N)C2)n1` [Example 29, (S)—N-(4-(3-Aminopyrrolidin-1-yl)-2-methyl-1-(pyridin-4-ylmethyl)-1H-benzo[d]imidazol-5-yl)-2-(2-fluoro-6-methoxyphenyl)pyrimidine-4-carboxamide] reads no more than 100 nM.
